Test results taken from ChEMBL document CHEMBL3885881, “DrugMatrix”.

Species on record: Rattus norvegicus
Assay: DrugMatrix - Regimen: Daily Repeat
Assay type: toxicity, organism-based, Sprague-Dawley
Set-up: regimen Daily Repeat, gender Male, age 6-8 weeks
Conditions: in vivo, po, […], route oral GAVAGE; for BASOPHIL / EOSINOPHIL / ERYTHROCYTE COUNT / HEMATOCRIT / HEMOGLOBIN / LEUKOCYTE COUNT / LYMPHOCYTE / MEAN CORPUSCULAR HEMOGLOBIN / MEAN CORPUSCULAR HEMOGLOBIN CONCENTRATION / MEAN CORPUSCULAR VOLUME / MONOCYTE / NEUTROPHIL / PLATELET COUNT / ABSOLUTE BASOPHIL / ABSOLUTE EOSINOPHIL / ABSOLUTE LYMPHOCYTE / ABSOLUTE MONOCYTE / ABSOLUTE SEGMENTED NEUTROPHIL / NUCLEATED RED BLOOD CELLS: tissue Blood; for ALANINE AMINOTRANSFERASE / ALBUMIN / ALKALINE PHOSPHATASE / ASPARTATE AMINOTRANSFERASE / BLOOD UREA NITROGEN / CHLORIDE / CHOLESTEROL / CREATINE PHOSPHOKINASE / CREATININE / GLUCOSE / PHOSPHORUS / POTASSIUM / SODIUM / TOTAL BILIRUBIN / TOTAL PROTEIN / CARBON DIOXIDE / LACTATE DEHYDROGENASE / LIPASE / URIC ACID: tissue Plasma
[1] = 11 mg/kg, dose level High, time 28 day
[2] = 72 h, dose 2.5 mg/Kg, dose level Low, time 3 day
[3] = 120 h, dose 2.5 mg/Kg, dose level Low, time 5 day

O=[N+]([O-])c1cc([As](=O)(O)O)ccc1O [ROXARSONE]
BASOPHIL [1]: 0.47%
EOSINOPHIL [1]: 0.51%
ERYTHROCYTE COUNT [1]: 8.5 x10E6/uL
HEMATOCRIT [1]: 51.09%
HEMOGLOBIN [1]: 16.79 G/DL
LEUKOCYTE COUNT [1]: 12.9 x10E3/uL
LYMPHOCYTE [1]: 81.69%
MEAN CORPUSCULAR HEMOGLOBIN [1]: 19.74 pg
MEAN CORPUSCULAR HEMOGLOBIN CONCENTRATION [1]: 32.83 G/DL
MEAN CORPUSCULAR VOLUME [1]: 60.14 fL
MONOCYTE [1]: 1.78%
NEUTROPHIL [1]: 14.18%
PLATELET COUNT [1]: 1300.33 x10E3/uL
ALANINE AMINOTRANSFERASE [1]: 30.56 u/L
ALBUMIN [1]: 3.98 G/DL
ALKALINE PHOSPHATASE [1]: 205 u/L
ASPARTATE AMINOTRANSFERASE [1]: 60.78 u/L
BLOOD UREA NITROGEN [1]: 11.78 mg/dL
CHLORIDE [1]: 107.33 MEQ/L
CHOLESTEROL [1]: 57.22 mg/dL
CREATINE PHOSPHOKINASE [1]: 179.11 u/L
CREATININE [1]: 0.44 mg/dL
GLUCOSE [1]: 136.78 mg/dL
PHOSPHORUS [1]: 11.58 mg/dL
POTASSIUM [1]: 6.69 MEQ/L
SODIUM [1]: 152.22 MEQ/L
TOTAL BILIRUBIN [1]: 0.23 mg/dL
TOTAL PROTEIN [1]: 6.68 G/DL
ABSOLUTE BASOPHIL [2]: 0 CELLS/uL
ABSOLUTE EOSINOPHIL [2]: 0 CELLS/uL
ABSOLUTE LYMPHOCYTE [2]: 9950.67 CELLS/uL
ABSOLUTE MONOCYTE [2]: 307.67 CELLS/uL
ABSOLUTE SEGMENTED NEUTROPHIL [2]: 1408.33 CELLS/uL
BASOPHIL [2]: 0%
EOSINOPHIL [2]: 0%
ERYTHROCYTE COUNT [2]: 5.09 x10E6/uL
HEMATOCRIT [2]: 33.27%
HEMOGLOBIN [2]: 13.17 G/DL
LEUKOCYTE COUNT [2]: 11.67 x10E3/uL
LYMPHOCYTE [2]: 85.33%
MEAN CORPUSCULAR HEMOGLOBIN [2]: 25.9 pg
MEAN CORPUSCULAR HEMOGLOBIN CONCENTRATION [2]: 39.6 G/DL
MEAN CORPUSCULAR VOLUME [2]: 65.4 fL
MONOCYTE [2]: 2.67%
NEUTROPHIL [2]: 12%
NUCLEATED RED BLOOD CELLS [2]: 0 /100WBC
PLATELET COUNT [2]: 1052.67 x10E3/uL
ALANINE AMINOTRANSFERASE [2]: 79.33 u/L
ALBUMIN [2]: 4.07 G/DL
ALKALINE PHOSPHATASE [2]: 426.33 u/L
ASPARTATE AMINOTRANSFERASE [2]: 104 u/L
BLOOD UREA NITROGEN [2]: 11 mg/dL
CARBON DIOXIDE [2]: 22 mmol/L
CHLORIDE [2]: 103.67 MEQ/L
CHOLESTEROL [2]: 66.33 mg/dL
CREATINE PHOSPHOKINASE [2]: 289.33 u/L
CREATININE [2]: 0.18 mg/dL
GLUCOSE [2]: 163.33 mg/dL
LACTATE DEHYDROGENASE [2]: 290.33 u/L
LIPASE [2]: 12.33 u/L
PHOSPHORUS [2]: 11 mg/dL
POTASSIUM [2]: 6.16 MEQ/L
SODIUM [2]: 142.77 MEQ/L
TOTAL BILIRUBIN [2]: 0.2 mg/dL
TOTAL PROTEIN [2]: 5.47 G/DL
URIC ACID [2]: 1.57 mg/dL
ABSOLUTE BASOPHIL [3]: 0 CELLS/uL
ABSOLUTE EOSINOPHIL [3]: 60.33 CELLS/uL
ABSOLUTE LYMPHOCYTE [3]: 15548.33 CELLS/uL
ABSOLUTE MONOCYTE [3]: 0 CELLS/uL
ABSOLUTE SEGMENTED NEUTROPHIL [3]: 2058 CELLS/uL
BASOPHIL [3]: 0%
EOSINOPHIL [3]: 0.33%
ERYTHROCYTE COUNT [3]: 5.56 x10E6/uL
HEMATOCRIT [3]: 35.6%
HEMOGLOBIN [3]: 14.43 G/DL
LEUKOCYTE COUNT [3]: 17.67 x10E3/uL
LYMPHOCYTE [3]: 88%
MEAN CORPUSCULAR HEMOGLOBIN [3]: 26 pg
MEAN CORPUSCULAR HEMOGLOBIN CONCENTRATION [3]: 40.53 G/DL
MEAN CORPUSCULAR VOLUME [3]: 64.1 fL
MONOCYTE [3]: 0%
NEUTROPHIL [3]: 11.67%
NUCLEATED RED BLOOD CELLS [3]: 0.33 /100WBC
PLATELET COUNT [3]: 1233.67 x10E3/uL
ALANINE AMINOTRANSFERASE [3]: 63.33 u/L
ALBUMIN [3]: 4.23 G/DL
ALKALINE PHOSPHATASE [3]: 389.33 u/L
ASPARTATE AMINOTRANSFERASE [3]: 94 u/L
BLOOD UREA NITROGEN [3]: 13 mg/dL
CARBON DIOXIDE [3]: 32.33 mmol/L
CHLORIDE [3]: 100.67 MEQ/L
CHOLESTEROL [3]: 60.67 mg/dL
CREATINE PHOSPHOKINASE [3]: 298.67 u/L
CREATININE [3]: 0.18 mg/dL
GLUCOSE [3]: 151 mg/dL
LACTATE DEHYDROGENASE [3]: 370 u/L
LIPASE [3]: 11.67 u/L
PHOSPHORUS [3]: 10.73 mg/dL
POTASSIUM [3]: 6.25 MEQ/L
SODIUM [3]: 142.83 MEQ/L
TOTAL BILIRUBIN [3]: 0.2 mg/dL
TOTAL PROTEIN [3]: 6.03 G/DL
URIC ACID [3]: 1.77 mg/dL
